Results on two compounds are retold here after patent US10314880B2, “Composition comprising bortezomib” (FTF Pharma Private Limited, priority 2015, dated 2019).

In data set [1] the test system is Female New-Zealand White Rabbits. To be noted: rabbit, in vivo. The protocol: Also Local tolerability/tissue reaction of Bortezomib 3.5 mg/0.2 mL compared with Velcade (Reference product) in Female New-Zealand White Rabbits.
The study was conducted to assess the local tolerance of Bortezomib in comparison with Velcade (Reference product) in New Zealand White Rabbits by single subcutaneous or intravenous route.

The conditions of data set [2]: Bortezomib as such; cited from earlier work.
The conditions of data set [3]: stress testing and accelerated stability studies; cited from earlier work.

Turning to Velcade, the “External observation of the site of injection: signs of local intolerance” value in data set [1] was “did not reveal any signs of local intolerance”. In addition, the “Microscopic signs of local intolerance” value in data set [1] (iv) is reported as “no signs of local intolerance”. For the same compound, the “animals with signs of local intolerance observed microscopically” value in data set [1] (sc) is recorded as 50 % of animals.
For `CC(C)C[C@H](NC(=O)[C@H](Cc1ccccc1)NC(=O)c1cnccn1)B(O)O` [Bortezomib, [(1R)-3-methyl-1-[[(2s)-3-phenyl-2-(pyrazine-2-carbonylamino)propanoyl]amino]butyl]boronic acid], the water solubility entry in data set [2] is reported as “poor water solubility”. For the same compound, the “stability in aqueous solution for injection” value in data set [3] is “unstable”.
